Data on 10 compounds can be found in patent US10590115B2, “Tetrahydroquinazoline derivatives useful as anticancer agents” (PFIZER INC., priority 2018, dated 2020).

In this assay the target is T1, GDP-loaded kRas (1-169) G12C, C51S, C80L, C118S (Homo sapiens, UniProt P01116, C118S/C51S/C80L/G12C).
T1 construct: GDP-loaded kRas (1-169) G12C, C51S, C80L, C118S
Briefly: Mass Spectrometry Reactivity Assay (MSRA), covalent adduct with kRas G12C. To be noted: 0.5 h at room temperature; 5 μM KRas protein; typical final concentration of the compounds 10 μM. Type of assay: binding. How it is done: Mass Spectrometry Reactivity Assay (MSRA)
Compounds presented in the present invention covalently bind to kRas G12C using MSRA to detect a covalent adduct of the exemplary compound and kRas G12C. GDP-loaded kRas (1-169) G12C, C51S, C80L, C118S were diluted in the protein assay buffer 25 mM Hepes pH7.5, 200 mM NaCl, 5% glycerol to concentration of 5 μM and 20 μl of protein was transferred into 96-well plate. […] See K-Ras(G12C) inhibitors allosterically control GTP affinity and effector interactions; Ostrem J M, Peters U, Sos M L, Wells J A, Shokat K M; Nature. 2013, Nov. 28; 503(7477):548-51.
Exemplary compounds dissolved in DMSO were diluted 100-fold into solution containing 20 μl of 5 μM KRas protein in the 96-well plate to initiate the reaction. Mosquito (TPP Lab tech) liquid handling robot was used to add compounds to protein solution. Typical final concentration of the compounds was 10 μM. The plates were placed on a shaker for 1 min at RT, sealed and incubated at room temperature for specified time period. 5 μl of reaction mix was added to 10 μl of 0.2% formic acid stop solution and mixed well. Typical end points were 30, 120, 600 and 1440 min.
Data were collected using Waters Acquity H-class UPLC system/Xevo G2-XS TOF mass spectrometer. The protein was injected in their liquid phase onto a Bruker Microtrap protein column TR1/15109/03. The following buffers were used to set LC gradient: Buffer A: 0.2% formic acid H20; B: 0.2% formic acid CAN. The protein was eluted from the column using the following LC Gradient: 0-0.4 min, 10% B to 30% B; 0.4 min-2.4 min, to 90% B, 2.5 min, 10% B, 3 min, 10% B. Initial data analysis was performed using MaxEnt software right after data acquisition.
The standard auto processing function was used to define percentage of unmodified and modified kRas protein using MexEnt software right after data acquisition. The highest peak was defined as 100% while smaller peak as assigned the number defined by autoprocessing function. The percent of modification corresponding to modified with exemplary compound and unmodified KRas GDP-loaded kRas (1-169) G12C, C51S, C80L, C118S were exported to Xcel data analysis software.
The percent of modified protein at the defined concentration of exemplary compound was calculated using the following formula: % mod=Num of modified peak/Sum of modified+unmodified.

Turning to `C=CC(=O)N1CCN(c2ncnc3c2C[C@@H](C)[C@H](c2c(CO)ccc4[nH]ncc24)C3)CC1` [Example D1, 1-(4-{(6R,7R)-7-[5-(hydroxymethyl)-1H-indazol-4-yl]-6-methyl-5,6,7,8-tetrahydroquinazolin-4-yl}piperazin-1-yl)prop-2-en-1-one], the “% Modification (0.5 h)” value stood at 12%.

With `C=CC(=O)N1CCN(c2ncnc3c2CCC(c2c(C(F)(F)F)ccc4[nH]ncc24)C3)CC1` (stereo not shown) [Example G1, 1-(4-(7-(5-(trifluoromethyl)-1H-indazol-4-yl)-5,6,7,8-tetrahydroquinazolin-4-yl)piperazin-1-yl)prop-2-en-1-one], the “% Modification (0.5 h)” value is given as 16%.

Turning to `C=CC(=O)N1CCN(c2ncnc3c2C[C@@H](C)[C@H](c2c(C)cc(O)c4[nH]ncc24)C3)CC1` [Example E1, 1-{4-[(6R,7R)-7-(7-hydroxy-5-methyl-1H-indazol-4-yl)-6-methyl-5,6,7,8-tetrahydroquinazolin-4-yl]piperazin-1-yl}prop-2-en-1-one], the “% Modification (0.5 h)” value is 40%.

As to `C=CC(=O)N1CCN(c2ncnc3c2CC[C@@H](c2c(C)ccc4[nH]ncc24)C3)CC1` (single isomer, unassigned) [Example A2], the “% Modification (0.5 h)” value is on record as 0%.

On to `C=CC(=O)N1CCN(c2ncnc3c2C[C@H](C)[C@@H](c2c(C)ccc4[nH]ncc24)C3)CC1` [Example A6, 1-{4-[(6S,7S)-6-methyl-7-(5-methyl-1H-indazol-4-yl)-5,6,7,8-tetrahydroquinazolin-4-yl]piperazin-1-yl}prop-2-en-1-one], for which the “% Modification (0.5 h)” value worked out at 3%.

Take `C=CC(=O)N1CCN(c2ncnc3c2CCC(c2c(C)ccc4[nH]ncc24)C3)[C@@H](C)C1` (stereo partly drawn) [Example B2, 1-{(3S)-3-methyl-4-[7-(5-methyl-1H-indazol-4-yl)-5,6,7,8-tetrahydroquinazolin-4-yl]piperazin-1-yl}prop-2-en-1-one]: the “% Modification (0.5 h)” value came out at 13%.

`C=CC(=O)N1CCN(c2ncnc3c2CC[C@@H](c2cc(O)cc4ccccc24)C3)CC1` (single isomer, unassigned) [Example G2]: the “% Modification (0.5 h)” value is given as 0%.

`C=CC(=O)N1CCN(c2nc(OCCCOC)nc3c2CCC(c2c(C)ccc4[nH]ncc24)C3)CC1` (stereo not shown) [Example C2, 1-{4-[2-(3-methoxypropoxy)-7-(5-methyl-1H-indazol-4-yl)-5,6,7,8-tetrahydroquinazolin-4-yl]piperazin-1-yl}prop-2-en-1-one]: the “% Modification (0.5 h)” value is on record as 22%.

Consider `C=CC(=O)N1CCN(c2nc(N3CC(N(C)C)C3)nc3c2C[C@H](C)[C@@H](c2c(Cl)ccc4[nH]ncc24)C3)CC1` (single isomer, unassigned) [Example F11], for which the “% Modification (0.5 h)” value came out at 8%.

Regarding `C=CC(=O)N1CCN(c2nc(N3CC(N(C)C)C3)nc3c2C[C@H](C)[C@@H](c2c(C)ccc4[nH]ncc24)C3)CC1` (single isomer, unassigned) [Example F3], the “% Modification (0.5 h)” value was 0%.
